From US20080039377A1, “Composition Comprising a Jnk Inhibitor and Cyclosporin” (Applied Research Systems ARS Holding N.V., priority 2004, published 2008) come the findings set out here.

The test concerns model of global ischemia in gerbils. The experiment in a line: Neuroprotective effect of a JNK inhibitor combined with cyclosporin in a model of global ischemia in gerbils. Format: in vivo. The conditions noted are these: for neuroprotective effects (hippocampal damage assessed by histology): compared to vehicle and to JNK inhibitor alone. As for the experimental part: In Vivo Assay: Neuroprotective Effect of a JNK Inhibitor Combined with Cyclosporin in a Model of Global Ischemia in Gerbils
The following assay aims at determining the neuroprotective effect of the test compositions in a model of global ischemia in gerbils, in vivo.
A total of 73 gerbils (60-80 g; obtained from Elevage Janvier, France) were provided. 4 groups, each consisting of 6-36 animals were formed: • Group 1 (n=36): The animals were administered (ip) a dose of 10 ml/kg of vehicle. • Group 2 (n=6): The animals were administered (ip) a dose of 15 mg/kg of cyclosporine. • Group 3 (n=8): The animals were administered (ip) a dose of 60 or 40 mg/kg of a JNK inhibitor according to formula (I) or (II). • Group 4 (n=7-8): The animals were administered (ip) a dose of the test composition containing 60 or 40 mg/kg of a JNK inhibitor according to formula (I) or (II) together with 15 mg/kg cyclosporine.
Surgery. Gerbils weighting 60-80 g were anaesthetized with 4% isoflurane (Baxter, Volketswil, Switzerland) in medical air, administered via facemask. The anaesthesia was then maintained using 3% isoflurane until the end of surgery. Bilateral common carotid arteries were dissected and occluded with bulldog clamps for 5 min.
Histology. Seven days after the onset of occlusion, the animals were killed by decapitation. The brains were frozen at −20° C. in 2-methylbutane and cut in 20 μm-thick sections in a cryocut (Microm HM 5000M, Walldorf, Germany). The sections were stained with cresyl violet acetate and the lesion in the hippocampus were scored within a 5-point scale: • Score 0: No loss of CA1 neurons; • Score 1: Weak damage of CA1 (CA1/Subiculum or CA1/CA3 border); • Score 2: Loss of CA1 neurons (<1/2); • Score 3: Loss of CA1 neurons (>1/2); and • Score 4: Total loss of CA1 neurons and expanding into other areas (CA3, Dentate gyrus, Cortex). The total score was obtained as the sum of scores in the right and left hemispheres.

Turning to `N#CC(c1ccnc(NCCc2cccnc2)n1)c1nc2ccccc2s1` (centres unmarked) [Compound A, 1,3-benzothiazol-2-yl(2-{[2-(3-pyridinyl)ethyl]amino}-4-pyrimidinyl)acetonitrile], the “neuroprotective effects (hippocampal damage assessed by histology)” value (JNK inhibitor 60 mg/kg ip with Cyclosporin 15 mg/kg ip) is listed as “increases the neuroprotective effects”. Also, the “Histological score Mean ± SEM” value (Table I, Group 2: JNK inhibitor 0 mg/kg ip, Cyclosporine A 15 mg/kg ip, hippocampal lesion score (sum of both hemispheres, 0-4 each) 7 days after 5 min bilateral carotid occlusion) was determined as 6.0 ± 0.0; the “Histological score Mean ± SEM” value (Table I, Group 3: JNK inhibitor 60 mg/kg ip, Cyclosporine A 0 mg/kg, hippocampal lesion score 7 days after occlusion) is 3.6 ± 0.8; the “Histological score Mean ± SEM” value (Table I, Group 4: JNK inhibitor 60 mg/kg ip together with Cyclosporine A 15 mg/kg ip, hippocampal lesion score 7 days after occlusion) is on record as 1.3 ± 0.6.

For the molecule `CC#N.CCCCNC1CCN(S(=O)(=O)c2ccc(CNC(=O)c3ccc(Cl)cc3)s2)CC1` [Compound B, 4-chloro-N-[(5-{[4-(butylamino)piperidin-1-yl]sulfonyl}thien-2-yl)methyl]benzamide acetonitrile], the “neuroprotective effects (hippocampal damage assessed by histology)” value (JNK inhibitor 40 mg/kg ip with Cyclosporin 15 mg/kg ip) is reported as “increases the neuroprotective effects”. Besides, the “Histological score Mean ± SEM” value is 6.0 ± 0.0 (Table II, Group 2: JNK inhibitor 0 mg/kg ip, Cyclosporine A 15 mg/kg ip, hippocampal lesion score 7 days after occlusion); 5.3 ± 0.5 (Table II, Group 3: JNK inhibitor 60 mg/kg ip, Cyclosporine A 0 mg/kg, hippocampal lesion score 7 days after occlusion); 2.1 ± 0.6 (Table II, Group 4: JNK inhibitor 60 mg/kg ip together with Cyclosporine A 15 mg/kg ip, hippocampal lesion score 7 days after occlusion).
